From patent publication US5691365A, “Nicotinic receptor antagonists in the treatment of neuropharmacological disorders” (University of Kentucky Research Foundation, priority 1995, dated 1997)
Several values for one entry are separate records, joined by “and”; a condition that tells them apart may be missing. Identical values can stand only once. Entries after “also recorded” stand apart in the source; their conditions may differ.

Legend:
[1] = test system: [^3 H]DA release from rat striatal slices; assay: [3H]DA release assay: compound-evoked (intrinsic agonist) release; type: cell-based
Description: (§1) Biological Methods. Male Spragua-Dawley rats (150-200 g) were obtained from Harlan Laboratories (Indianapolis, Ind.) and were housed two per cage with free access to food and water in the Division of Lab Animal Resources at the College of Pharmacy at the University of Kentucky. Experimental protocols involving the animals were approved by the Institutional Animal Care and Use Committee at the University of Kentucky.
(§2) [^3 H]DA Release Assay. Rat striatal slices (500 μm thickness, 6-8 mg wet weight) were obtained as previously described (Dwoskin and Zahniser, 1986). Slices were incubated for 30 min in Krebs' buffer ([…]; 118 NaCl, 4.7 KCl, 1.2 MgCl2, 1.0 NaH2 PO4, 1.3 CaCl2, […], 11.1 glucose, 25 NaHCO3, 0.11 L-ascorbic acid nd 0.004 disodium EDTA; pH 7.4 and saturated with 95% O2 /5% CO2) in a metabolic shaker at 34°. Slices were rinsed with 15 ml of fresh buffer and incubated for an additional 30 min in fresh buffer containing 0.1 μM [^3 H]dopamine (6 slices/3 ml). Subsequently, slices were rinsed with 15 ml of fresh buffer and transferred to a glass superfusion chamber. Slices were superfused (1.0 ml/min) for 60 min with Krebs' buffer containing nomifensine (10 μm) and pargyline (10 μm) and maintained at 34° C., pH 7.4 with continual aeration (95% O2 /5% CO2). Two 5-min samples (5 ml) were collected to determine basal outflow of [^3 H]DA. N-Substituted nicotine analogues were added to the superfusion buffer after the collection of the second sample and remained in the buffer until 12 consecutive 5-min samples were collected. […] At the end of the experiment each slice was solubilized and the [^3 H] content of the tissue determined.
(§3) Radioactivity in the superfusate and tissue samples was determined by liquid scintillation spectroscopy. Fractional release for each superfusate sample was calculated by dividing the total tritium collected in each sample by the total tritium present in the tissue at the time of sample collection. Basal [^3 H]out flow was calculated from the average of the tritium collected in the two 5-min samples just before addition of the N-substituted nicotine analogue. The sums of the increase in collected tritium resulting from either exposure to the test compound or exposure to nicotine in the absence and presence of the test compound equaled total [^3 H]overflow. [^3 H]overflow was calculated by subtracting the [^3 H]outflow during an equivalent period of prestimulation from the values in samples collected during and after drug exposure. Inasmuch as the radiolabelled compounds were not separated and identified, the tritium collected in superfusate is referred to as either [^3 H]outflow or [^3 H]overflow, rather than as [^3 H]DA. [^3 H]Overflow primarily represents [^3 H]DA in the presence of nomifensine and pargyline in the superfusion buffer (Zumstein et al. 1981).

[2] = test system: S(-)nicotine (10 μM)-evoked [^3 H]DA release from rat striatal slices; type: cell-based
Description: as §1, §2, §3
In these experiments, the striatal slices were superfused for 60 min with various concentrations of the analogues prior to nicotine (10 μM) exposure. Antagonist activity was evaluated by comparing the nicotine-evoked [^3 H]overflow in the absence and presence of the analogues. […] The relative order of potency of the classical and pyridine-N substituted nicotine analogues for inhibition of nicotine-evoked [^3 H]DA release from rat striatal slices is illustrated in FIG. 2 by a comparison of their IC50 values.
FIG. 2. IC50 values for N-substituted analogues of nicotine, nornicotine, and cotinine to inhibit nicotine-evoked [^3 H]DA release from rat striatal slices. Inhibition produced by the classical nicotinic inhibitors, mecamylamine (MEC) and DHBE was also determined. Slices were superfused with inhibitor for 60 min […] co-superfusion with 10 μM nicotine. Inhibition was determined by comparing [^3 H]DA release in the absence and presence of various concentrations of inhibitor. IC50 values were determined using the Logit-log plot (pseudo-Hill plot). […] IC50 for each animal was determined as the intercept of the linear regression.

[3] = test system: rat striatal synaptosomes; conditions: cited from earlier work
[4] = test system: rat hypothalamic and corticotropin-releasing hormone secretion; conditions: cited from earlier work
[5] = physchem; conditions: d2o, 1H-NMR
Description: (§4) pKa Determination. A solution [1 g in 12 mls of deuterium oxide 100% atom D] of the compound under investigation was gradually acidified by drop-wise addition of a solution of DC1 to D2 O (20% wt/wt, 99.5% atom D). The pD values were measured on a Corning pH meter. For each pD value, a sample (0.8 mls) was analyzed by ^1 H-NMR on a Varian Unity 300 MHz spectrometer using sodium 3(trimethylsilyl)-2,2,3,3-d4 -propionate (TSP) as internal reference. Protonation of the pyrrolidine- and pyridine-N atoms was followed by observing the variation in chemical shift of the N-1'-methyl and 2'-proton signals from pO 8.8 to pD 3.0. A titration curve of pD vs chemical shift was constructed to determine the pKa values of pyrrolidino-N atom and/or the pyridine-N atom.
as §4, with “Computational Chemistry.” for “pKa Determination.”, “3-(trimethylsilyl)-2,2,3,3-d4” for “3(trimethylsilyl)-2,2,3,3-d4”, “N-1'methyl” for “N-1'-methyl”, “pD” for “pO”

[6] = test system: rabbit caudate nucleus; conditions: cited from earlier work
[7] = test system: dopamine 2 agonist binding in rat basil ganglia; conditions: in vivo; cited from earlier work
[8] = test system: receptors that contain the α7, α8, or α9 subunits; conditions: cited from earlier work
[9] = test system: nicotine receptor; conditions: cited from earlier work
[10] = test system: skin; conditions: cited from earlier work
[11] = animal and human experiments; cited from earlier work
[12] = Ames type assays and chronic exposure studies; cited from earlier work

For `CN1CCC[C@H]1c1cccnc1` [S(-)nicotine, reference compound], the “effect on [3H]DA release / intrinsic agonist activity (in words)” value [1] was “concentration-dependent increase in [^3 H]DA release and was the most potent and efficacious compound; also recorded: concentration-dependent increase in [^3 H]DA release from rat striatal slices”, the “total [3H]overflow (effect on [3H]DA release)” value [1] was 2.80 ± 0.28 and 3.24 ± 0.37 and 5.56 ± 0.50 and the EC50 ([1]; Rattus norvegicus, read-out: EC50 for nicotine-evoked [3H]DA release) was 2 µM. The “nicotine (10 μM)-evoked total [3H]overflow, grand mean” value [2] was 2.52 ± 0.12, the “nicotine (10 μM)-evoked total [3H]overflow, range” value [2] was 1.03-4.65 and the “effect on [3H]dopamine release from rat striatal synaptosomes” value [3] was “stimulates the release of [3H]dopamine from rat striatal synaptosomes”. For the same compound, the “effect on IR-rCRH secretion (in words)” value [4] was “stimulated IR-rCRH secretion in a dose-dependent fashion”, the pKa ([5]; pKa of pyridine-N functionality) was 3.75 and the pKa ([5]; pKa of pyrrolidino-N (N'-amino) functionality) was 8.4. The “effect on basal outflow of GABA” value [6] was “accelerated the basil outflow of gamma-aminobutyric acid (GABA)” and the “effect of chronic treatment on dopamine 2 agonist binding” value [7] was “decreases dopamine 2 agonist binding in rat basil ganglia”.

For α-bungarotoxin, the “selective blockade of nicotinic receptors with α7, α8 or α9 subunits” value [8] is given as “selectively blocks receptors that contain the α7, α8, or α9 subunits”.

For `CN1[C@@H](CC(=O)c2ccccc2)CCC[C@H]1C[C@H](O)c1ccccc1` [alpha-lobeline], the agonist/antagonist character [9] is listed as “mixed agonist-antagonist”.

In the case of `CN1CCCC1=O` [N-methyl-2-pyrrolidone], the skin penetration enhancement [10] is listed as “effective penetration enhancer”, the “irritation or sensitization potential” value [11] is listed as “very little irritation or sensitization potential” and the toxicity [12] is listed as “have not revealed any significant toxicity”.
